Earlier results, collected in patent US4386074A, “LRF Antagonists” (The Salk Institute for Biological Studies, priority 1981, dated 1983).
[ ]: non-standard residue; d: D form. pGlu = O=C1CC[C@@H](C(=O)O)N1

System: release of LH and other gonadotropins by the pituitary gland
Details: D-Ala6 versus Gly6 des-His2 peptide

Substance: [pGlu]WSY[dA]LRPG-NH2
- potency as inhibitor of the release of gonadotropins relative to the same peptide with Gly in the 6-position: 4 times
